Several values for one entry are separate records, joined by “and”; a condition that tells them apart may be missing. Identical values can stand only once. Toxic doses and inconclusive results are not listed.
System: L1210 leukemia ip in BDF1 mice, survival T/C
Test: NCI In Vivo Anticancer Drug Screen. Data for tumor model L1210 Leukemia (intraperitoneal) in B6D2F1 (BDF1) mice
Conditions: endpoint: mean survival time, higher = longer survival
How it was run: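 Value reflects the ratio of survival in compound-treated mice to survival in vehicle-treated controls, with both groups carrying the same transplanted tumor.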

[1] = dose: 100.0 mg/kg/injection, schedule: Q04DX003 (ip), vehicle: saline
[2] = dose: 200.0 mg/kg/injection, schedule: Q04DX003 (ip), vehicle: saline
[3] = dose: 400.0 mg/kg/injection, schedule: Q04DX003 (ip), vehicle: saline
[4] = dose: 100.0 mg/kg/injection, schedule: Q01DX009 (ip), vehicle: Klucel (hydroxypropylcellulose) (HPC)
[5] = dose: 200.0 mg/kg/injection, schedule: Q01DX009 (ip), vehicle: Klucel (hydroxypropylcellulose) (HPC)
[6] = dose: 400.0 mg/kg/injection, schedule: Q01DX009 (ip), vehicle: Klucel (hydroxypropylcellulose) (HPC)

`O=S1(=O)CC2(N3CCOCC3)CCCCC21` (stereo not given) was tested, and the T/C (dose: 50.0 mg/kg/injection, schedule: Q01DX001 (ip), vehicle: carboxymethylcellulose (CMC)) was 98 % of control, the T/C (dose: 100.0 mg/kg/injection, schedule: Q01DX001 (ip), vehicle: carboxymethylcellulose (CMC)) was 104 % of control and the T/C (dose: 200.0 mg/kg/injection, schedule: Q01DX001 (ip), vehicle: carboxymethylcellulose (CMC)) was 98 % of control.
With `c1ccc(N/N=C(\c2ccccc2)c2ccccn2)cc1` the T/C (dose: 100.0 mg/kg/injection, schedule: Q01DX001 (ip), vehicle: saline with Tween-80) was 105 % of control, the T/C (dose: 200.0 mg/kg/injection, schedule: Q01DX001 (ip), vehicle: saline with Tween-80) was 94 % of control and the T/C (dose: 400.0 mg/kg/injection, schedule: Q01DX001 (ip), vehicle: saline with Tween-80) was 94 % of control.
For `CCOC(=O)C1C(C(=O)c2ccc(C)cc2)C2(Cl)C(Cl)=C(Cl)C1(Cl)C2(Cl)Cl` (stereo not given), the T/C (dose: 100.0 mg/kg/injection, schedule: Q01DX009 (ip), vehicle: saline) was 96 % of control, the T/C (dose: 200.0 mg/kg/injection, schedule: Q01DX009 (ip), vehicle: saline) was 91 % of control and the T/C (dose: 400.0 mg/kg/injection, schedule: Q01DX009 (ip), vehicle: saline) was 98 % of control.
With `N#CCC(C#N)N1CCCCC1` (stereo not given) the T/C (dose: 0.39 mg/kg/injection, schedule: Q01DX009 (ip), vehicle: other) was 100 % of control, the T/C (dose: 0.78 mg/kg/injection, schedule: Q01DX009 (ip), vehicle: other) was 96 % of control and the T/C (dose: 1.56 mg/kg/injection, schedule: Q01DX009 (ip), vehicle: other) was 94 % of control. The T/C (dose: 3.12 mg/kg/injection, schedule: Q04DX003 (ip), vehicle: other) was 94 % of control, the T/C (dose: 6.25 mg/kg/injection, schedule: Q04DX003 (ip), vehicle: other) was 100 % of control and the T/C (dose: 12.5 mg/kg/injection, schedule: Q01DX001 (ip), vehicle: other) was 103 % of control. For the same molecule, the T/C (dose: 12.5 mg/kg/injection, schedule: Q04DX003 (ip), vehicle: other) was 100 % of control.
In the case of `O=C(C(O[N+](=O)[O-])c1ccccc1)C(O[N+](=O)[O-])c1ccccc1` (stereo not given), the T/C (dose: 100.0 mg/kg/injection, schedule: Q01DX001 (ip), vehicle: Klucel (hydroxypropylcellulose) (HPC)) is reported as 95 % of control, the T/C (dose: 200.0 mg/kg/injection, schedule: Q01DX001 (ip), vehicle: Klucel (hydroxypropylcellulose) (HPC)) is reported as 95 % of control and the T/C (dose: 400.0 mg/kg/injection, schedule: Q01DX001 (ip), vehicle: Klucel (hydroxypropylcellulose) (HPC)) is reported as 93 % of control.
For `O=c1cc(COc2ccc(O)cc2)[nH]c(=O)[nH]1`, the T/C [1] was 101 % of control, the T/C [2] was 104 % of control and the T/C [3] was 89 % of control.
`CC1CN1P(=O)(Oc1cccc2ccccc12)N1CC1C` (stereo not given) was tested, and the T/C (dose: 50.0 mg/kg/injection, schedule: Q01DX001 (ip), vehicle: saline) was 96 % of control, the T/C (dose: 100.0 mg/kg/injection, schedule: Q01DX001 (ip), vehicle: saline) was 100 % of control and the T/C (dose: 178.0 mg/kg/injection, schedule: Q01DX001 (ip), vehicle: saline) was 101 % of control and 109 % of control. For the same molecule, the T/C (dose: 200.0 mg/kg/injection, schedule: Q01DX001 (ip), vehicle: saline) was 113 % of control, the T/C (dose: 267.0 mg/kg/injection, schedule: Q01DX001 (ip), vehicle: saline) was 101 % of control and 103 % of control and the T/C (dose: 400.0 mg/kg/injection, schedule: Q01DX001 (ip), vehicle: saline) was 101 % of control and 104 % of control. For the same molecule, the T/C (dose: 600.0 mg/kg/injection, schedule: Q01DX001 (ip), vehicle: saline) was 110 % of control and 116 % of control.
In the case of `CC(=O)Cc1cc(C)c(C(C)=O)c(O)c1C(C)=O`, the T/C (dose: 100.0 mg/kg/injection, schedule: Q04DX003 (ip), vehicle: Klucel (hydroxypropylcellulose) (HPC)) is reported as 103 % of control, the T/C (dose: 200.0 mg/kg/injection, schedule: Q04DX003 (ip), vehicle: Klucel (hydroxypropylcellulose) (HPC)) is reported as 108 % of control and the T/C (dose: 400.0 mg/kg/injection, schedule: Q04DX003 (ip), vehicle: Klucel (hydroxypropylcellulose) (HPC)) is reported as 105 % of control.
In the case of `CCN(CC)C(N)=Nc1ccc(NC(=O)c2ccc(C(=O)Nc3ccc(N=C(N)N(CC)CC)cc3)cc2)cc1`, the T/C (dose: 1.8 mg/kg/injection, schedule: Q01DX Z (ip), vehicle: water) is reported as 113 % of control, the T/C (dose: 6.5 mg/kg/injection, schedule: Q01DX Z (ip), vehicle: water) is reported as 180 % of control and the T/C (dose: 50.0 mg/kg/injection, schedule: Q01DX Z (oral), vehicle: water) is reported as 101 % of control. The T/C (dose: 200.0 mg/kg/injection, schedule: Q01DX Z (oral), vehicle: water) was 107 % of control and the T/C (dose: 400.0 mg/kg/injection, schedule: Q01DX Z (oral), vehicle: water) was 93 % of control.
For `N#CCCP(=O)(CCC#N)CCC#N`, the T/C (dose: 50.0 mg/kg/injection, schedule: Q04DX003 (ip), vehicle: saline) was 98 % of control, the T/C [1] was 98 % of control and the T/C [2] was 101 % of control. For the same molecule, the T/C [3] was 101 % of control.
In the case of `O=C1CC(Nc2ccccc2)C(=O)N1c1cccc2ccccc12` (stereo not given), the T/C [4] is reported as 102 % of control, the T/C [5] is reported as 96 % of control and the T/C [6] is reported as 91 % of control.
`C1CN(CC2COC(CN3CCOCC3)CO2)CCO1` (stereo not given) was tested, and the T/C [1] was 106 % of control, the T/C [2] was 97 % of control and the T/C [3] was 98 % of control.
In the case of `CN(C(=O)Nc1cccc(C(F)(F)F)c1)c1ccccc1`, the T/C [4] is reported as 98 % of control, the T/C [5] is reported as 96 % of control and the T/C [6] is reported as 101 % of control.

Reference: PubChem BioAssay AID248 (DTP/NCI, 2004)
